Laboratory results: paper PMC9197583 (Chemical communications (Cambridge, England), 2022)

Target: T1, NrtA (Synechocystis sp. PCC 6803, UniProt P73452)
T1 sequence (P73452 30-446): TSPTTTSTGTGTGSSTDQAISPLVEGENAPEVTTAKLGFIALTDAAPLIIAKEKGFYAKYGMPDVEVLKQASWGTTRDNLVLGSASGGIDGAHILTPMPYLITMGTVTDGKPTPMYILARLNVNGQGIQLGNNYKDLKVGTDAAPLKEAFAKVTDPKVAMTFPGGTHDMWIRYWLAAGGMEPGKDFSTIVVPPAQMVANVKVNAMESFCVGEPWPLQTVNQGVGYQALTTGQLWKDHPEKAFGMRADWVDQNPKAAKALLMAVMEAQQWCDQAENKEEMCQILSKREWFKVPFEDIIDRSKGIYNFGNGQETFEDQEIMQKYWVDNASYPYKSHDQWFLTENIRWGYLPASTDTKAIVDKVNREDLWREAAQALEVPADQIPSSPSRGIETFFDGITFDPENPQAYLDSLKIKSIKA
Assay: isothermal titration calorimetry
Format: binding

| Compound | Kd [nM] |
| --- | --- |
| O=[N+]([O-])O [nitrate] | 57 ± 23 |
| O=NO [nitrite] | 230 ± 33 |
